Laboratory results as given in patent publication US9045450B2, “Method for chemical synthesis of antrocin and use thereof for suppressing non-small cell lung cancer” (KAIYEW INVESTMENT CORP., priority 2011, dated 2015).

What was measured:
H441 lung cancer cells = assay: Microarray analysis of gene transcription in H441 cells after antrocin treatment; format: cell-based, Homo sapiens; details: 12 hours
Description: (§1) The present invention further investigated the effect of antrocin on cancer cells at the genetic level. After H441 cells had been treated with 5 μM antrocin for 12 hours, the effect of antrocin on genetic transcription was analyzed. Only those genes whose expressions were inhibited 3.5 times or more were analyzed as target genes by GeneSpring software package and the results were presented using a tree diagram (FIG. 5). […] These genes play important roles in cell proliferations, inflammatory responses, metastases, invasions, angiogenesis, and cell cycle regulations. […] These genes are associated with transcription factor NF-kB, for example cytokines (IFI44, IFIT1, MX1), inflammatory responses (NFkB1 and IFIT2), stem cell properties (CTNNBL1, SENP2, CEACAM1 and POU5F2), and drug resistance reactions (ABCB5, ABCG2 and XAF1), etc. Based on the aforementioned microarray results, the present invention further investigated protein expressions associated with inflammation related factors, stem cell properties, and drug resistance related molecules.
as §1, with “effect of Antrocin on genetic” for “effect of antrocin on genetic”, “a tree diagram. STRING9.0 software package was also used to predict the effect of antrocin on the signaling pathway of H441 cells and possible target genes to be inhibited (FIG. 5).” for “a tree diagram (FIG. 5).”, “example cytokines (1F144, IFIT1, MX1),” for “example cytokines (IFI44, IFIT1, MX1),”, “further investigated inflammatory responses, stem cell” for “further investigated protein expressions associated with inflammation related factors, stem cell”, “properties, and multidrug resistance-associated protein expressions.” for “properties, and drug resistance related molecules.”

H1975 cells = assay: Cytotoxicity / cell proliferation, sulforhodamine B; format: cell-based, human; details: H1975, antrocin 0.5-10 μM, two days, FIG. 4 (A)
Description: (§2) Human lung cancer cell lines (CL1-0, CL1-5, H1975, H441, PC9, A549) and human bronchial epithelia cell lines (BEAS-2B) were obtained from the Institute of Clinical Medicine, Taipei Medical University. The cells were grown and maintained in DMEM medium (Dulbecco's Modified Eagle's Medium and RPMI basal medium supplemented with 10% fetal bovine serum, 2 mM glutamine, […] streptomycin, and 100 U/ml penicillin in a wet incubator at 5% CO2.
(§3) Lung cancer cell were grown in a medium supplemented with 10% fetal bovine serum until the cells grew to approximately 80% of their full-blown size. Old culture solution was drained, the lung cancer cells were washed with PBS buffer solution (phosphate buffered saline), and 10 ml of serum-free culture medium was added. Different pharmaceutical drugs were added according to experimental purposes, all reactions were carried out in an incubator at 37° C.
(§4) Human lung cancer cells (CL1-0, CL1-5, H1975, H441, PC9, A549) and human bronchial epithelial cells (BEAS-2B) were seeded in 96-well culture plates (2000 cells/well) and incubated overnight in 100 μl complete DMEM. […] After two days, total number of human cells in each well was measured using sulforhodamine B (a fluorescent protein dye). […] The optical density was measured at 562 nm by a microtiter plate detector. […]

H441 cells = assay: as above; format: cell-based, human; details: H441, antrocin 0.5-10 μM, two days, FIG. 4 (A)
Description: as §2, §3, §4

[1] = Body weight of tumor-bearing mice; format: in vivo, non-obese diabetic/severe combined immunodeficient mice; details: 5 and 10 mg/kg/day intraperitoneal, four weeks, FIG. 7 (C)
Description: […] cells (6×10^5/100 μl PBS) were intravenously injected into immunodeficient mice via lateral tail vein. Antrocin treatments (low dose of 5 mg/kg/day and high dose of 10 mg/kg/day) were performed by daily intraperitoneal injection into tumor-bearing mice over a period of four weeks. Weekly observations were performed and data were recorded for (A) VIS images, (B) Tumor growth, (C) Body weights, and (D) Survival curves.
The present invention further investigated anticancer effect of antrocin in vivo. H441-L2G cells expressing firefly luciferase and green fluorescent protein were implanted by intravenous injections via the lateral tail vein (6×10^5/100 μl PBS) into non-obese diabetic/severe combined immunodeficient mice. Daily intraperitoneal injections of antrocin (two groups of mice, a low dose of 5 mg/kg/day and a high dose of 10 mg/kg/day) were given over a period of four weeks to observe tumor growth.
The present invention further investigated the anticancer effect of antrocin in vivo. H441-L2G cells expressing firefly luciferase and green fluorescent protein were implanted by intravenous injections via the lateral tail vein (6×10^5/100 μl PBS) into non-obese diabetic/severe combined immunodeficiency mice. […]

C=C1CC[C@H]2C(C)(C)CCC[C@@]23C(=O)OC[C@@H]13 [antrocin]
number of genes whose expressions were significantly affected (H441 lung cancer cells; 5 μM antrocin): more than 100 genes | Multiple (reduction of gene expression) (H441 lung cancer cells; ABCB5, probe 8137310, 5 μM antrocin): 3.62 | Multiple (reduction of gene expression) (H441 lung cancer cells; ABCG2, probe 8101675, 5 μM antrocin): 3.93 | Multiple (reduction of gene expression) (H441 lung cancer cells; AKT1S1, probe 8038477, 5 μM antrocin): 10.29 | Multiple (reduction of gene expression) (H441 lung cancer cells; ANG, probe 7973084, 5 μM antrocin): 4.24 | Multiple (reduction of gene expression) (H441 lung cancer cells; CDC14C, probe 8132803, 5 μM antrocin): 5.49 | Multiple (reduction of gene expression) (H441 lung cancer cells; CEACAM1, probe 8037205, 5 μM antrocin): 4.99 | Multiple (reduction of gene expression) (H441 lung cancer cells; CXCL10, probe 8101126, 5 μM antrocin): 4.62 | Multiple (reduction of gene expression) (H441 lung cancer cells; EDG7, probe 7917276, 5 μM antrocin): 3.75 | Multiple (reduction of gene expression) (H441 lung cancer cells; EPSTI1, probe 7971296, 5 μM antrocin): 5.61 | Multiple (reduction of gene expression) (H441 lung cancer cells; FLJ35880, probe 8082585, 5 μM antrocin): 5.48 | Multiple (reduction of gene expression) (H441 lung cancer cells; FOSL1, probe 7949532, 5 μM antrocin): 9.93 | Multiple (reduction of gene expression) (H441 lung cancer cells; GDPD1, probe 8008802, 5 μM antrocin): 3.73 | Multiple (reduction of gene expression) (H441 lung cancer cells; IFI16, probe 7906400, 5 μM antrocin): 4.9 | Multiple (reduction of gene expression) (H441 lung cancer cells; IFI44, probe 7902553, 5 μM antrocin): 8.3 | Multiple (reduction of gene expression) (H441 lung cancer cells; IFIT1, probe 7929065, 5 μM antrocin): 5.28 | Multiple (reduction of gene expression) (H441 lung cancer cells; IFIT2, probe 7929047, 5 μM antrocin): 4.44 | Multiple (reduction of gene expression) (H441 lung cancer cells; IFITM2, probe 7937330, 5 μM antrocin): 6.16 | Multiple (reduction of gene expression) (H441 lung cancer cells; LAMP3, probe 8092348, 5 μM antrocin): 3.8 | Multiple (reduction of gene expression) (H441 lung cancer cells; LBA1, probe 8086125, 5 μM antrocin): 4.35 | Multiple (reduction of gene expression) (H441 lung cancer cells; LILRA3, probe 8039226, 5 μM antrocin): 4.58 | Multiple (reduction of gene expression) (H441 lung cancer cells; MX1, probe 8068713, 5 μM antrocin): 5.42 | Multiple (reduction of gene expression) (H441 lung cancer cells; NFKB1, probe 8096635, 5 μM antrocin): 3.85 | Multiple (reduction of gene expression) (H441 lung cancer cells; OAS2, probe 7958913, 5 μM antrocin): 5.91 | Multiple (reduction of gene expression) (H441 lung cancer cells; OASL, probe 7967117, 5 μM antrocin): 4.09 | Multiple (reduction of gene expression) (H441 lung cancer cells; OR1L8, probe 8163960, 5 μM antrocin): 3.83 | Multiple (reduction of gene expression) (H441 lung cancer cells; PARP9, probe 8090018, 5 μM antrocin): 4.03 | Multiple (reduction of gene expression) (H441 lung cancer cells; PARP14, probe 8082100, 5 μM antrocin): 4.3 | Multiple (reduction of gene expression) (H441 lung cancer cells; POU5F2, probe 8113094, 5 μM antrocin): 3.9 | Multiple (reduction of gene expression) (H441 lung cancer cells; PPARGC1A, probe 8099633, 5 μM antrocin): 4.44 | Multiple (reduction of gene expression) (H441 lung cancer cells; RTP4, probe 8084732, 5 μM antrocin): 4.6 | Multiple (reduction of gene expression) (H441 lung cancer cells; SAMD9L, probe 8140971, 5 μM antrocin): 4.08 | Multiple (reduction of gene expression) (H441 lung cancer cells; SENP2, probe 8084607, 5 μM antrocin): 8.9 | Multiple (reduction of gene expression) (H441 lung cancer cells; SIGLEC5, probe 8038877, 5 μM antrocin): 4.94 | Multiple (reduction of gene expression) (H441 lung cancer cells; SLFN5, probe 8006531, 5 μM antrocin): 3.65 | Multiple (reduction of gene expression) (H441 lung cancer cells; TAX1BP3, probe 8011407, 5 μM antrocin): 7.15 | Multiple (reduction of gene expression) (H441 lung cancer cells; TNFSF10, probe 8092169, 5 μM antrocin): 4.09 | Multiple (reduction of gene expression) (H441 lung cancer cells; TRIM22, probe 7938035, 5 μM antrocin): 7.65 | Multiple (reduction of gene expression) (H441 lung cancer cells; XAF1, transcript variant 1, probe 8004184, 5 μM antrocin): 12.61 | Multiple (reduction of gene expression) (H441 lung cancer cells; ZC3H6, probe 8044450, 5 μM antrocin): 3.5 | Multiple (reduction of gene expression) (H441 lung cancer cells; cDNA DKFZp451O2417, probe 7902541, 5 μM antrocin): 10.74 | Multiple (reduction of gene expression) (H441 lung cancer cells; catenin, beta like 1 (TNNBL1), probe 8062409, 5 μM antrocin): 3.59 | inhibition of cancer cell growth/proliferation (H1975 cells): most robust inhibitions | inhibition of cancer cell growth/proliferation (H441 cells): most robust inhibitions | body weight, treated group vs control group [1]: no significant difference
